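Cells were grown in 96-well plates and exposed to each compound for 48 hours at five concentrations; endpoints were interpolated linearly between bracketing concentrations, or set to the highest concentration if not reached. GI50 marks 50% less growth. TGI marks complete inhibition of growth.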
What was measured:
Test in all cases: DTP human tumour cell line panel, 48 h
A549 NSCLC = tested on: A549 NSCLC
HS 578T breast = tested on: HS 578T breast
HT29 colon = tested on: HT29 colon
KM12 colon = tested on: KM12 colon
NCI-H226 lung = tested on: NCI-H226 lung
OVCAR-3 ovarian = tested on: OVCAR-3 ovarian
OVCAR-8 ovarian = tested on: OVCAR-8 ovarian
SK-MEL-28 melanoma = tested on: SK-MEL-28 melanoma
T-47D breast = tested on: T-47D breast
UACC-257 melanoma = tested on: UACC-257 melanoma

Row | SMILES | GI50 (A549 NSCLC) [µM] | TGI (A549 NSCLC) [µM] | GI50 (HS 578T breast) [µM] | TGI (HS 578T breast) [µM] | GI50 (HT29 colon) [µM] | TGI (HT29 colon) [µM] | GI50 (KM12 colon) [µM] | TGI (KM12 colon) [µM] | GI50 (NCI-H226 lung) [µM] | TGI (NCI-H226 lung) [µM] | GI50 (OVCAR-3 ovarian) [µM] | TGI (OVCAR-3 ovarian) [µM] | GI50 (OVCAR-8 ovarian) [µM] | TGI (OVCAR-8 ovarian) [µM] | GI50 (SK-MEL-28 melanoma) [µM] | TGI (SK-MEL-28 melanoma) [µM] | GI50 (T-47D breast) [µM] | TGI (T-47D breast) [µM] | GI50 (UACC-257 melanoma) [µM] | TGI (UACC-257 melanoma) [µM]
1 | Cc1ccc2c(C(C[N+](=O)[O-])c3cccs3)c(-c3ccccc3)[nH]c2c1 (stereo unspecified) | 2.73 | 15.1 | 1.57 | 9.53 | 1.3 | 6.54 | 1.54 | 7.25 | 3.38 | 8.61 | 1.24 | 4.75 | 3.55 | > 33.3 | 2.99 | 8.41 | 2.22 | 27.4 | 3.88 | 13.7
2 | CN1CCN(CC#Cc2cccc(C(=O)c3cnn(-c4ccc(F)cc4)c3N)c2)CC1 | > 25 | > 25 | > 25 | > 25 | > 19.3 | > 25 | > 25 | > 25 | > 25 | > 25 | > 25 | > 25 | > 25 | > 25 | > 25 | > 25 | > 25 | > 25 | > 25 | > 25
3 | C[C@@H]1CC[C@@H]2[C@@H]1[C@H](OC(=O)/C=C/c1ccccc1)[C@]1(c3ccccc3)C[C@@H](OC(=O)CO)[C@@]2(C)O1 | 14.8 | 33.8 | 0.112 | 0.708 | 15.9 | 37.8 | 15.2 | 38.1 | 13.2 | 29 | 13.3 | 27 | 6.71 | 34.8 | 16.3 | 33.4 | 6.67 | 21.2 | 21.1 | 43.1
4 | CC1(C)N=C(N)N=C(N)N1c1ccc(CCCCc2ccc(S(=O)(=O)F)cc2)cc1 | 0.623 | > 100 | 13.2 | 46 | 0.4 | 21.3 | 0.601 | 13 | 1.99 | 33.2 | 3.88 | 16.4 | 1.47 | 28.6 | 4.57 | 20.3 | 2.09 | 10.3 | 2.07 | 18.3
5 | COC(=O)C(=O)CC(=O)CCn1ncc(Cl)c(Cl)c1=O | – | 36.5 | 27.3 | 87.5 | – | 15 | – | > 74.5 | – | 39.3 | – | 17.8 | – | 27.9 | – | 21.9 | 21.2 | 40.2 | – | 25.8
6 | CN1CCN(Cc2ccc(C(=O)Nc3cncc(C#Cc4cnc(N)c5ccccc45)c3)cc2C(F)(F)F)CC1 | 1.94 | 3.85 | 2.98 | 14.6 | 2.05 | 5.02 | 0.788 | 2.48 | 3.18 | 27.5 | 1.95 | 3.71 | 2.32 | 5.38 | 1.75 | 3.22 | 11.6 | 32.2 | 2.14 | 4.34
7 | COc1ccc(-c2cc(-c3cc(Cl)ccc3Cl)nc3[nH]c(-c4cc(F)c(Cl)cc4Cl)cc(=O)c23)cc1 | 14.2 | 74.7 | 8.19 | 50.4 | 39.2 | > 100 | 21.7 | 67.1 | 20.5 | 63.6 | > 100 | > 100 | 17 | 51.3 | > 100 | > 100 | > 100 | > 100 | 21 | > 100
8 | CC(CO)(CO)N=Cc1cc(I)cc(I)c1O | – | > 100 | – | 74 | – | 44.6 | – | 28.2 | – | 34.7 | – | 29.2 | – | 48.5 | – | 38.7 | – | > 100 | – | 45.1
9 | N#Cc1c(NC(=O)c2cccc(C(F)(F)F)c2)sc2c1CCC(=O)C2 | 1.88 | 6.03 | 0.542 | 3.77 | 0.367 | 2.47 | 0.477 | 1.95 | 1.55 | 5.02 | 0.418 | 1.52 | 1.15 | 6.97 | 0.526 | 1.92 | 0.297 | 1.97 | 0.728 | 3.85
10 | COc1ccc(NC(=O)Nc2n[nH]c3ccccc23)cc1 | > 100 | > 100 | > 100 | > 100 | > 100 | > 100 | > 100 | > 100 | > 100 | > 100 | > 100 | > 100 | > 100 | > 100 | > 100 | > 100 | > 100 | > 100 | > 100 | > 100
11 | N/C(CC(=O)Nc1cc(C(F)(F)F)ccc1Cl)=N\O | – | > 100 | – | > 100 | – | > 100 | – | > 100 | – | > 100 | – | > 100 | – | > 100 | – | > 100 | – | > 100 | – | > 100
12 | NC(CO)Cc1cnc[nH]1 (stereo unspecified) | > 100 | > 100 | > 100 | > 100 | > 100 | > 100 | > 100 | > 100 | > 100 | > 100 | > 100 | > 100 | > 100 | > 100 | > 100 | > 100 | > 100 | > 100 | – | > 100
13 | CCN1CCN(c2nc(NCCCNc3ccnc4cc(Cl)ccc34)c3ccccc3n2)CC1 | 2.84 | 11.9 | 2.24 | 6.22 | 2.6 | 7.22 | 2.74 | 11.4 | 4.97 | 26 | 2.9 | 10.3 | 3.5 | 12.9 | 1.91 | 3.9 | 1.87 | 5.5 | 2.01 | 3.97
